Test results as given in patent publication US6444617B1, “Fused-heterocycle dicarboxylic acid diamide derivatives or salts thereof, herbicide and usage thereof” (Nihon Nohyaku Co., Ltd., priority 1998, dated 2002).

How the values were obtained:
Type in all cases: in vivo
[1] = tested on: bulrush (Scirpus juncoides Roxb.); assay: Test Example 1: herbicidal effect on paddy field weeds before emergence; conditions: Dosage 5 kg/ha
Procedure, shortened: (§1)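 Seeds of both weeds, still ungerminated, in soil pots held under paddy conditions received a set dose of test solution as soil treatment. After twenty-one days, control relative to untreated pots was calculated and rated on a scoring scale.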

[2] = tested on: barnyard grass (Echinochloa crus-galli Beauv.); assay: as above; conditions: Dosage 5 kg/ha
Procedure, shortened: as §1

[3] = tested on: bulrush (Scirpus juncoides Roxb.); assay: Test Example 2: herbicidal effect on paddy field weeds after emergence; conditions: Dosage 5 kg/ha; one-leaved stage; 21 days after treatment
Procedure, shortened: (§2)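 Weeds were sown in 1/10000 are pots of soil flooded to paddy conditions and grown to the one-leaf stage, then the soil was treated with a solution of compound at a predetermined dosage.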

[4] = tested on: monochoria (Monochoria vaginalis Presl); assay: as above; conditions: Dosage 5 kg/ha; one-leaved stage; 21 days after treatment
Procedure, shortened: as §2

[5] = tested on: barnyard grass (Echinochloa crus-galli Beauv.); assay: as above; conditions: Dosage 5 kg/ha; one-leaved stage; 21 days after treatment
Procedure, shortened: as §2

wheat = assay: Test Example 4: phytotoxicity to upland crop plants, treatment after emergence; conditions: dosage 5 kg/ha, sprayed after emergence, judged 14 days after treatment
Procedure, shortened: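 Upland weeds and crop plants (soybean, wheat) are grown from seed in soil until they reach given leaf stages, then treated by spraying with the compound-containing agent; effects are judged two weeks later.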

soybean plant = assay: as above; conditions: dosage 5 kg/ha, sprayed after emergence, judged 14 days after treatment
Procedure, shortened: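 Scores of weed-killing rate, with crop phytotoxicity, come from inspection 14 days after plants in soil vats, grown to specified leaf stages, are sprayed with a formulation holding the compound at a prescribed concentration.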

wheat (Wh) = assay: Test Example 3: phytotoxicity to upland crop plants, treatment before emergence; conditions: dosage 5 kg/ha
Procedure, shortened: (§3)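 A sprayed liquid agent with a prescribed concentration of active compound was applied pre-emergence. Visual phytotoxicity on soybean and wheat was rated by criterion two weeks (14 days) after application, concurrently with the herbicidal assessment.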

soybean plant (So) = assay: as above; conditions: dosage 5 kg/ha
Procedure, shortened: as §3

[6] = tested on: bird's eye speedwell (Veronica persica Poir.), Vp; assay: Test Example 4: herbicidal effect on upland weeds after emergence; conditions: dosage 5 kg/ha; sprayed after emergence; judged 14 days after treatment
Procedure, shortened: (§4)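 Soil vats; sown weeds + soybean/wheat; spray at leaf-stage, prescribed compound concentration; weed-kill rate judged day 14.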

[7] = tested on: barnyard grass (Echinochloa crus-galli Beauv.), Ec; assay: as above; conditions: dosage 5 kg/ha; sprayed after emergence; judged 14 days after treatment
Procedure, shortened: as §4

[8] = tested on: cleavers (Galium aparine L.), Ga; assay: as above; conditions: dosage 5 kg/ha; sprayed after emergence; judged 14 days after treatment
Procedure, shortened: as §4

[9] = tested on: velvetleaf (Abutilon theophtasti L.), At; assay: as above; conditions: dosage 5 kg/ha; sprayed after emergence; judged 14 days after treatment
Procedure, shortened: as §4

[10] = tested on: forxtail grass (Alopecurus aequalis var. amurensis Ohwi), Am; assay: as above; conditions: dosage 5 kg/ha; sprayed after emergence; judged 14 days after treatment
Procedure, shortened: as §4

[11] = tested on: cocklebur (Xanthium strumarium L.), Xs; assay: as above; conditions: dosage 5 kg/ha; sprayed after emergence; judged 14 days after treatment
Procedure, shortened: as §4

[12] = tested on: bird's eye speedwell (Veronica persica Poir.), Vp; assay: Test Example 3: herbicidal effect on upland weeds before emergence; conditions: dosage 5 kg/ha
Procedure, shortened: (§5)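 Herbicidal activity was rated from kill rate determined 14 days post-spray, the compound having been applied pre-emergence as a liquid agent.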

[13] = tested on: barnyard grass (Echinochloa crus-galli Beauv.), Ec; assay: as above; conditions: dosage 5 kg/ha
Procedure, shortened: as §5

[14] = tested on: cleavers (Galium aparine L.), Ga; assay: as above; conditions: dosage 5 kg/ha
Procedure, shortened: as §5

[15] = tested on: velvetleaf (Abutilon theophtasti L.), At; assay: as above; conditions: dosage 5 kg/ha
Procedure, shortened: as §5

[16] = tested on: forxtail grass (Alopecurus aequalis var. amurensis Ohwi), Am; assay: as above; conditions: foxtail grass, dosage 5 kg/ha
Procedure, shortened: as §5

[17] = tested on: cocklebur (Xanthium strumarium L.), Xs; assay: as above; conditions: dosage 5 kg/ha
Procedure, shortened: as §5

SMILES	Pre-emergence treatment Bulrush (herbicidal effect) [1]	Pre-emergence treatment Barnyard grass (herbicidal effect) [2]	Post-emergence treatment Bulrush (herbicidal effect) [3]	Post-emergence treatment Monochoria (herbicidal effect) [4]	Post-emergence treatment Barnyard grass (herbicidal effect) [5]	Phytotoxicity Wh (wheat)	Phytotoxicity So (soybean plant)	Phytotoxicity Wh (wheat (Wh))	Phytotoxicity So (soybean plant (So))	Herbicidal effect Vp [6]	Herbicidal effect Ec [7]	Herbicidal effect Ga [8]	Herbicidal effect At [9]	Herbicidal effect Am [10]	Herbicidal effect Xs [11]	Herbicidal effect Vp [12]	Herbicidal effect Ec [13]	Herbicidal effect Ga [14]	Herbicidal effect At [15]	Herbicidal effect Am [16]	other results
CCCNC(=O)c1nc2ccsc2cc1C(=O)Nc1c(CC)ccc(Cl)c1CC [compound 871]	5 (Weed-killing rate is 100%.)	5 (Weed-killing rate is 100%.)	5 (Weed-killing rate is 100%.)	5 (Weed-killing rate is 100%.)	5 (Weed-killing rate is 100%.)	5 (Crop-killing rate is 100%.)	4 (Crop-killing rate is 90-99%.)	5 (Crop-killing rate is 100%.)	4 (Crop-killing rate is 90-99%.)	5 (Weed-killing rate is 100%.)	5 (Weed-killing rate is 100%.)	5 (Weed-killing rate is 100%.)	5 (Weed-killing rate is 100%.)	5 (Weed-killing rate is 100%.)	5 (Weed-killing rate is 100%.)	5 (Weed-killing rate is 100%.)	5 (Weed-killing rate is 100%.)	5 (Weed-killing rate is 100%.)	5 (Weed-killing rate is 100%.)	5 (Weed-killing rate is 100%.)	Herbicidal effect Xs [17]: 5 (Weed-killing rate is 100%.)
Cc1c(Cl)cccc1NC(=O)c1cc2sccc2nc1C(=O)NC1CCCC1 [compound 892]	5 (Weed-killing rate is 100%.)	5 (Weed-killing rate is 100%.)	5 (Weed-killing rate is 100%.)	5 (Weed-killing rate is 100%.)	5 (Weed-killing rate is 100%.)	4 (Crop-killing rate is 90-99%.)	3 (Crop-killing rate is 70-89%.)	4 (Crop-killing rate is 90-99%.)	3 (Crop-killing rate is 70-89%.)	5 (Weed-killing rate is 100%.)	5 (Weed-killing rate is 100%.)	4 (Weed-killing rate is 90-99%.)	5 (Weed-killing rate is 100%.)	5 (Weed-killing rate is 100%.)	4 (Weed-killing rate is 90-99%.)	5 (Weed-killing rate is 100%.)	5 (Weed-killing rate is 100%.)	5 (Weed-killing rate is 100%.)	5 (Weed-killing rate is 100%.)	5 (Weed-killing rate is 100%.)	Herbicidal effect Xs [17]: 4 (Weed-killing rate is 90-99%.)
CCNC(=O)c1nc2ccn(OC)c2cc1C(=O)Nc1c(CC)ccc(Cl)c1CC [compound 894]	5 (Weed-killing rate is 100%.)	5 (Weed-killing rate is 100%.)	5 (Weed-killing rate is 100%.)	5 (Weed-killing rate is 100%.)	5 (Weed-killing rate is 100%.)	5 (Crop-killing rate is 100%.)	4 (Crop-killing rate is 90-99%.)	5 (Crop-killing rate is 100%.)	4 (Crop-killing rate is 90-99%.)	5 (Weed-killing rate is 100%.)	5 (Weed-killing rate is 100%.)	5 (Weed-killing rate is 100%.)	5 (Weed-killing rate is 100%.)	5 (Weed-killing rate is 100%.)	4 (Weed-killing rate is 90-99%.)	5 (Weed-killing rate is 100%.)	5 (Weed-killing rate is 100%.)	5 (Weed-killing rate is 100%.)	5 (Weed-killing rate is 100%.)	5 (Weed-killing rate is 100%.)	Herbicidal effect Xs [17]: 5 (Weed-killing rate is 100%.)
CCCNC(=O)c1nc2ccn(OC)c2cc1C(=O)Nc1c(CC)ccc(Cl)c1CC [compound 895]	5 (Weed-killing rate is 100%.)	5 (Weed-killing rate is 100%.)	5 (Weed-killing rate is 100%.)	5 (Weed-killing rate is 100%.)	5 (Weed-killing rate is 100%.)	5 (Crop-killing rate is 100%.)	4 (Crop-killing rate is 90-99%.)	5 (Crop-killing rate is 100%.)	4 (Crop-killing rate is 90-99%.)	5 (Weed-killing rate is 100%.)	5 (Weed-killing rate is 100%.)	5 (Weed-killing rate is 100%.)	5 (Weed-killing rate is 100%.)	5 (Weed-killing rate is 100%.)	5 (Weed-killing rate is 100%.)	5 (Weed-killing rate is 100%.)	5 (Weed-killing rate is 100%.)	5 (Weed-killing rate is 100%.)	5 (Weed-killing rate is 100%.)	5 (Weed-killing rate is 100%.)	Herbicidal effect Xs [17]: 5 (Weed-killing rate is 100%.)
CCCNC(=O)c1nc2ccn(C)c2cc1C(=O)Nc1c(CC)ccc(Cl)c1CC [compound 907]	5 (Weed-killing rate is 100%.)	5 (Weed-killing rate is 100%.)	5 (Weed-killing rate is 100%.)	5 (Weed-killing rate is 100%.)	5 (Weed-killing rate is 100%.)	5 (Crop-killing rate is 100%.)	4 (Crop-killing rate is 90-99%.)	5 (Crop-killing rate is 100%.)	4 (Crop-killing rate is 90-99%.)	5 (Weed-killing rate is 100%.)	5 (Weed-killing rate is 100%.)	5 (Weed-killing rate is 100%.)	5 (Weed-killing rate is 100%.)	5 (Weed-killing rate is 100%.)	5 (Weed-killing rate is 100%.)	5 (Weed-killing rate is 100%.)	5 (Weed-killing rate is 100%.)	5 (Weed-killing rate is 100%.)	5 (Weed-killing rate is 100%.)	5 (Weed-killing rate is 100%.)	Herbicidal effect Xs [17]: 5 (Weed-killing rate is 100%.)
